These results are taken from US7901707B2, “Biodegradable biocompatible implant and method of manufacturing same” (priority 2005, dated 2011).

Values after ≈ are worked out from the molar mass of the structure shown.

One assay has as its system ovarian cancer cells. Briefly: MTT assay, combination of PTX and CPT. As to conditions: 48 hour. In kind it is cell-based. The method, then: (§1) Briefly, cells were diluted with culture medium to the seeding density (10^5 cells/mL) and suspended in 96-well tissue culture plates (100 μL/well), and preincubated at 37° C. overnight. Cells were then treated continuously with 10 μL of various concentrations of the anticancer agents to obtain a dose-response curve for each agent. For combination assays, cells were also treated continuously with a total of with 10 μL of various concentrations of PTX and CPT. Each drug concentration was as follows: 6.25-200 ng/mL PTX and 1-50 μg/mL CPT.
(§2) After incubation of 24, 48 and 72 h, 10 μL of MTT solution (5 mg/mL of PBS, filtered) was added to each well and the plates were further incubated for 4 h. 100 μL of extraction buffer (20% w/v SDS dissolved at 37° C. in a solution of 50% Dimethylformamide/50% H2O, 2.5% of 80% Acetic acid 2.5% of 1N HCl (ph 4.7)) was added to solubilize the MTT-formazan product. Absorbance at 570 nm was measured with a microplate reader (SPECTRAmax® PLUS384, Molecular Devices, Sunnyvale Calif.—U.S.A.). Dose response curves were plotted as a percentage of the control cell number, which was obtained from the no-drug exposure sample.
(Tetrazolium assays rely on reduction of a dye to a coloured formazan, in cell work by metabolically active cells.)

For the next assay, the system named is SKOV3 cells. Nature of the assay: Cell proliferation assay (MTT), sustained exposure. In kind it is cell-based, human. The method, then: as §1
as §2, with “sample. A semilog scale was used when necessary: IC50 of CPT for SKOV3 and CAOV3.” for “sample.”

Another assay has as its system SKOV-3 cells. Nature of the assay: In-vitro cytotoxicity of implant, implant containing PTX and free PTX (MTT). It counts as cell-based, human. The method, then:
In-vitro cytoxicity of the implant, implant containing PTX and free PTX. The SKOV-3 cells were plated in 6-well plates and cultured in RPMI 1640 supplemented with 1% penicillin/streptomycin solution and 10% fetal bovine serum. The cell line was grown at 37° C. in a humidified incubator equilibrated with 5% CO2. Medium was replaced three times a week and cells were typsinised and subcultured every five days. […] Likewise, PoLi implants of varying sizes were added to the wells. The implants were swelled in 70% ethanol for sterilization purposes prior to incubation with cells. Following a 48 hour incubation period the cell viability was measured using the MTT assay. The MTT dye was added to each well following the specific time period and incubated for 2 hours at 37° C. Cells were then solubilized in 10% SDS. Formazan dye concentrations were then detected using a microplate reader (BioRad) at […] wavelength of 570 nm.

`N.N.O=C([O-])C1(C(=O)[O-])CCC1.[Pt+2]` [CPT, carboplatin]: in the assay on ovarian cancer cells (CPT alone), the “CPT IC50” value amounted to 35 µg/mL.

What is called IC50 is the concentration that inhibits the measured activity by half. `CC(=O)O[C@H]1C(=O)[C@@]2(C)[C@H]([C@H](OC(=O)c3ccccc3)[C@]3(O)C[C@H](OC(=O)[C@H](O)[C@@H](NC(=O)c4ccccc4)c4ccccc4)C(C)=C1C3(C)C)[C@]1(OC(C)=O)CO[C@@H]1C[C@@H]2O` [PTX, paclitaxel]: the “decrease in IC50, 24 versus 72 hour time point” value in the assay with SKOV3 cells is recorded as 10 fold. Moreover, the IC50 in the assay with ovarian cancer cells (PTX alone) was over 0.2 µg/mL; in the assay on SKOV-3 cells (Homo sapiens, SK-OV-3, 48 hours of incubation), 0.0347 µg/mL (≈ 0.0406 µM). For the same compound, the reduction in cells in the assay with SKOV-3 cells (0.050 μg of free PTX, 48 hours) was found to be 64%. In the assay on SKOV-3 cells (0.2 μg of free PTX, 48 hours), the cell reduction was found to be 73%.
